Data from patent US12221439B2, “Tetrahydropyridopyrimidine derivatives as AhR modulators” (JAGUAHR THERAPEUTICS PTE LTD, priority 2018, dated 2025).

Key:
CYP1A1 = CYP1A1 (Homo sapiens (Human), UniProt P04798); test: CYP1A1 inhibition assay (Promega P450-Glo, Cypex bactosomes); assay type: biochemical; conditions: direct CYP1A1 inhibition, Luciferin-CEE 30 μM, NADPH, 37° C., arithmetic mean of pIC50
Method: In Vitro Assay 22: […] Inhibition Assay
The direct CYP1A1 inhibitory activity of test compounds was also assessed using the Promega P450-Glo™ assay system. Seven concentrations of test compound were added to a ½ area white 96 well plate. Cypex […]. bactosomes ([final] 0.5 pmol) and CYPA substrate Luciferin-CEE ([final] 30 μM) were prepared in 0.1M potassium phosphate buffer and incubated with test compounds at 37° C. for 5 minutes. 0.2m NADPH was then added to the plates and incubated at 37° C., for 10 minutes. The reaction was stopped by adding luciferin detection reagent and luminescence was read after 20 minutes.

AhR = AhR (Homo sapiens (Human), UniProt P35869); test: AhR antagonism in U937 cells (Promega P450-Glo assay); assay type: cell-based; conditions: inhibition of agonist (KYNA) response, CYP1A1 activity readout (Luciferin-CEE), 24 hrs, arithmetic mean of pIC50
Sequence of AhR (P35869 11-848): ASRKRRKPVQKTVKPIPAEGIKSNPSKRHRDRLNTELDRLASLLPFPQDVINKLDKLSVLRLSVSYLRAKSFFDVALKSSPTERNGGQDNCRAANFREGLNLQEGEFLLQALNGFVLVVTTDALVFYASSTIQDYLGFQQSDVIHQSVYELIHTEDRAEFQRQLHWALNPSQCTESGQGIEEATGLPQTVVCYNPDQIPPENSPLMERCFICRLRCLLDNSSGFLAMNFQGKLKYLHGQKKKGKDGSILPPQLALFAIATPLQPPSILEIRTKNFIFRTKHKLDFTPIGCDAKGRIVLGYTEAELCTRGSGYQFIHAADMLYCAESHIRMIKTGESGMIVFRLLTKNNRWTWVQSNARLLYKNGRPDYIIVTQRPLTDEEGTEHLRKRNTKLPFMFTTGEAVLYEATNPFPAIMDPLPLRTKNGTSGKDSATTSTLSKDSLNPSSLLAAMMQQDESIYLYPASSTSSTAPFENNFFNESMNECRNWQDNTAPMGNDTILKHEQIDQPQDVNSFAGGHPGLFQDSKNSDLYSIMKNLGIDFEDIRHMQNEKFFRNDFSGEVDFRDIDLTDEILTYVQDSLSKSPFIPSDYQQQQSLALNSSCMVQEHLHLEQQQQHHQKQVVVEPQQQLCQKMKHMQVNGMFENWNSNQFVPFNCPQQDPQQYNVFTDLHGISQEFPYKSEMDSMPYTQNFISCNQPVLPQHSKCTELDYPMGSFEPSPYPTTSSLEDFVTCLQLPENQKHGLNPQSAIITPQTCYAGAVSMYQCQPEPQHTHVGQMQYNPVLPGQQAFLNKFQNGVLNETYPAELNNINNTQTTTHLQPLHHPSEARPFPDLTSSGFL
Method: Examples were tested in selected biological assays two or more times. Data are reported as the arithmetic mean of the pIC50 (−log10IC50) values, where IC50 is defined as the concentration of compound producing a 50% inhibition of the agonist (KYNA) response.
In Vitro Assay 1: AhR Antagonism in U937 Cells (Promega P450-Glo™ Assay)
AhR antagonism was assessed in U937 cells (myeloid lineage cell line derived from a human histiocytic lymphoma).). Ligand binds the AhR in the cytoplasm, and the AhR-ligand complex translocates to the nucleus and forms a heterodimer with AhR nuclear translocator (Arnt). This complex binds the xenobiotic response element (XRE) in the 5′ upstream region of the CYP1A1 promoter, enhancing CYP1A1 expression. CYP1A1 activity is subsequently determined by assessing the conversion of Luciferin-CEE to luciferin, which in turn reacts with luciferase to produce light. The amount of light produced is directly proportional to cytochrome P450 activity. U937 cells in Ultraculture serum free media (Lonza) were plated at 100,000 cells per well in a round bottom 96 well tissue culture plate. Seven concentrations of test compound (final [DMSO] 1%) were added and incubated for 10 minutes before the addition of […] KYNA. The plates were then placed in an incubator at 37° C., >85% humidity, 5% CO2 for 24 hrs. After aspiration of the supernatant the CYP1A1 substrate Luciferin-CEE ([Final] 83 μM) was added and incubated for 3 hrs before the reaction was stopped by adding luciferin detection reagent and luminescence was read after 20 minutes.

Sequence of CYP1A1 (P04798 whole entry): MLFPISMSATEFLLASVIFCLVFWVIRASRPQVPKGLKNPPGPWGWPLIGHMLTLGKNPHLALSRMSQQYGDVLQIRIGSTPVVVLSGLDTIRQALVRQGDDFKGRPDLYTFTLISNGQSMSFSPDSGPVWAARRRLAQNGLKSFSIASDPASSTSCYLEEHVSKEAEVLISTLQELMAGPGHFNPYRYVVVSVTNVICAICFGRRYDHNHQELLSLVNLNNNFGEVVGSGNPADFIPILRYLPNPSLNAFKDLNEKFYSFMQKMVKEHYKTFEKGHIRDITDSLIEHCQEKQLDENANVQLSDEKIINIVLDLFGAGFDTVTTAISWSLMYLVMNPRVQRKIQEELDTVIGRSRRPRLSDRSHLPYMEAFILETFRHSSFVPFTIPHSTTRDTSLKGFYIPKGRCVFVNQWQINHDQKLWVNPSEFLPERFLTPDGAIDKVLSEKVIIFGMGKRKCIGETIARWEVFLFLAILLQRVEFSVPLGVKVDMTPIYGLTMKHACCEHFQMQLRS

| Compound | cyp1A1 pIC50 (CYP1A1) | IC50 (AhR) | IC50 (CYP1A1) |
| --- | --- | --- | --- |
| CS(=O)(=O)N1CCc2c(nc(-c3cncc(F)c3)nc2NCCc2c[nH]c3ccccc23)C1 [Example 2, N-(2-(1H-indol-3-yl)ethyl)-2-(5-fluoropyridin-3-yl)-7-(methylsulfonyl)-5,6,7,8-tetrahydropyrido [3,4-d]pyrimidin-4-amine] | 6.20 | 1.26 nM |  |
| N#CCN1CCc2c(nc(-c3cncc(F)c3)nc2NCCc2c[nH]c3ccccc23)C1 [Example 4, 2-(4-((2-(1H-indol-3-yl)ethyl)amino)-2-(5-fluoropyridin-3-yl)-5,8-dihydropyrido[3,4-d]pyrimidin-7(6H)-yl)acetonitrile] |  | 6.31 nM | 794 nM |
| c1cncc(-c2nc3c(c(NCCc4c[nH]c5ccccc45)n2)CNC3)c1 [Example 10, N-(2-(1H-indol-3-yl)ethyl)-2-(pyridin-3-yl)-6,7-dihydro-5H-pyrrolo[3,4-d]pyrimidin-4-amine] | 6.80 | 12.6 nM |  |
| Fc1cncc(-c2nc3c(c(OCCc4c[nH]c5ccccc45)n2)CCNC3)c1 [Example 11, 4-(2-(1H-indol-3-yl)ethoxy)-2-(5-fluoropyridin-3-yl)-5,6,7,8-tetrahydropyrido[3,4-d]pyrimidine] | 6.40 | 3.16 nM |  |
| CN(C)C(=O)N1CCc2c(nc(-c3cncc(F)c3)nc2NCCc2c[nH]c3ccccc23)C1 [Example 13, 4-((2-(1H-indol-3-yl)ethyl)amino)-2-(5-fluoropyridin-3-yl)-N,N-dimethyl-5,8-dihydropyrido[3,4-d]pyrimidine-7(6H)-carboxamide] | 5.70 | 3.16 nM |  |
| Cn1nccc1C(=O)N1CCc2c(nc(-c3cncc(F)c3)nc2NCCc2c[nH]c3ccccc23)C1 [Example 15, (4-((2-(1H-indol-3-yl)ethyl)amino)-2-(5-fluoropyridin-3-yl)-5,8-dihydropyrido[3,4-d]pyrimidin-7(6H)-yl)(1-methyl-1H-pyrazol-5-yl)methanone] | 6.00 | 2 nM |  |
| NCC(=O)N1CCc2c(nc(-c3cncc(F)c3)nc2NCCc2c[nH]c3ccccc23)C1 [Example 16, 1-(4-((2-(1H-indol-3-yl)ethyl)amino)-2-(5-fluoropyridin-3-yl)-5,8-dihydropyrido[3,4-d]pyrimidin-7(6H)-yl)-2-aminoethan-1-one] |  | 6.31 nM | 100 nM |
| CCN1CCc2nc(-c3cncc(F)c3)nc(NCCc3c[nH]c4ccccc34)c2CC1 [Example 17b, N-(2-(1H-indol-3-yl)ethyl)-7-ethyl-2-(5-fluoropyridin-3-yl)-6,7,8,9-tetrahydro-5H-pyrimido[4,5-d]azepin-4-amine] | 6.10 | 15.8 nM |  |
| CC1(C)NCCc2c(NCCc3c[nH]c4ccccc34)nc(-c3cncc(F)c3)nc21 [Example 18b, N-(2-(1H-indol-3-yl)ethyl)-2-(5-fluoropyridin-3-yl)-8,8-dimethyl-5,6,7,8-tetrahydropyrido[3,4-d]pyrimidin-4-amine] | 5.90 | 20 nM |  |
| Fc1cncc(-c2nc3c(c(NCCc4nc5ccccc5[nH]4)n2)CCNC3)c1 [Example 19, N-(2-(1H-benzo[d]imidazol-2-yl)ethyl)-2-(5-fluoropyridin-3-yl)-5,6,7,8-tetrahydropyrido[3,4-d]pyrimidin-4-amine] | 5.10 | 3160 nM |  |

Further molecules by falling IC50 (AhR), results first:

| cyp1A1 pIC50 (CYP1A1) | IC50 (AhR) | IC50 (CYP1A1) | Compound |
| --- | --- | --- | --- |
| 6.20 | 25.1 nM |  | Fc1cncc(-c2nc3c(c(NCCc4c[nH]c5ccccc45)n2)CCNCC3)c1 [Example 17a, N-(2-(1H-indol-3-yl)ethyl)-2-(5-fluoropyridin-3-yl)-6,7,8,9-tetrahydro-5H-pyrimido[4,5-d]azepin-4-amine] |
| 6.40 | 25.1 nM |  | Cc1cncc(-c2nc3c(c(NCCc4c[nH]c5ccccc45)n2)CCNC3)c1 [Example 20, N-(2-(1H-indol-3-yl)ethyl)-2-(5-methylpyridin-3-yl)-5,6,7,8-tetrahydropyrido[3,4-d]pyrimidin-4-amine] |
| 6.60 | 20 nM |  | c1cncc(-c2nc3c(c(NCCc4c[nH]c5ccccc45)n2)CCNC3)c1 [Example 9, N-(2-(1H-indol-3-yl)ethyl)-2-(pyridin-3-yl)-5,6,7,8-tetrahydro pyrido[3,4-d]pyrimidin-4-amine] |
| 6.40 | 20 nM |  | Fc1cncc(-c2nc3c(c(NCCc4c[nH]c5ccccc45)n2)CNCC3)c1 [Example 21, N-(2-(1H-indol-3-yl)ethyl)-2-(5-fluoropyridin-3-yl)-5,6,7,8-tetrahydropyrido[4,3-d]pyrimidin-4-amine] |
| 7.00 | 15.8 nM |  | Fc1cncc(-c2nc3c(c(NCCc4c[nH]c5ccccc45)n2)CCNC3)c1 [Example 8, N-(2-(1H-indol-3-yl)ethyl)-2-(5-fluoropyridin-3-yl)-5,6,7,8-tetrahydropyrido[3,4-d]pyrimidin-4-amine] |
| 6.40 | 10 nM |  | CC(C)N1CCc2c(nc(-c3cncc(F)c3)nc2NCCc2c[nH]c3ccccc23)C1 [Example 5, N-(2-(1H-indol-3-yl)ethyl)-2-(5-fluoropyridin-3-yl)-7-isopropyl-5,6,7,8-tetrahydropyrido[3,4-d]pyrimidin-4-amine] |
| 6.70 | 10 nM |  | c1cncc(-c2nc3c(c(NCCc4c[nH]c5ccccc45)n2)CNCC3)c1 [Example 7, N-(2-(1H-indol-3-yl)ethyl)-2-(pyridin-3-yl)-5,6,7,8-tetrahydropyrido [4,3-d]pyrimidin-4-amine] |
|  | 10 nM | 316 nM | Clc1cncc(-c2nc3c(c(NCCc4c[nH]c5ccccc45)n2)CCNC3)c1 [Example 22, N-(2-(1H-indol-3-yl)ethyl)-2-(5-chloropyridin-3-yl)-5,6,7,8-tetrahydropyrido[3,4-d]pyrimidin-4-amine] |
| 6.50 | 5.01 nM |  | CN1CCc2c(nc(-c3cncc(F)c3)nc2NCCc2c[nH]c3ccccc23)C1 [Example 6, N-(2-(1H-indol-3-yl)ethyl)-2-(5-fluoropyridin-3-yl)-7-methyl-5,6,7,8-tetrahydropyrido[3,4-d]pyrimidin-4-amine] |
| 6.20 | 5.01 nM |  | CC1(C)c2nc(-c3cncc(F)c3)nc(NCCc3c[nH]c4ccccc34)c2CCN1Cc1ccccc1 [Example 18a, N-(2-(1H-indol-3-yl)ethyl)-7-benzyl-2-(5-fluoropyridin-3-yl)-8,8-dimethyl-5,6,7,8-tetrahydropyrido[3,4-d]pyrimidin-4-amine] |
| 6.00 | 1.58 nM |  | CC(=O)N1CCc2c(nc(-c3cncc(F)c3)nc2NCCc2c[nH]c3ccccc23)C1 [Example 1, 1-(4-((2-(1H-indol-3-yl)ethyl)amino)-2-(5-fluoropyridin-3-yl)-5,8-dihydropyrido [3,4-d]pyrimidin-7(6H)-yl)ethan-1-one] |
| 6.10 | 1.26 nM |  | CNC(=O)N1CCc2c(nc(-c3cncc(F)c3)nc2NCCc2c[nH]c3ccccc23)C1 [Example 14, 4-((2-(1H-indol-3-yl)ethyl)amino)-2-(5-fluoropyridin-3-yl)-N-methyl-5,8-dihydropyrido[3,4-d]pyrimidine-7(6H)-carboxamide] |
| 6.10 | 1 nM |  | CN(C)S(=O)(=O)N1CCc2c(nc(-c3cncc(F)c3)nc2NCCc2c[nH]c3ccccc23)C1 [Example 12, 4-((2-(1H-indol-3-yl)ethyl)amino)-2-(5-fluoropyridin-3-yl)-N,N-dimethyl-5,8-dihydropyrido[3,4-d]pyrimidine-7(6H)-sulfonamide] |
